What was measured:
[1] = test system: IL-4; experiment: In vitro cytokine release from human PBMCs: IL-4; format: cell-based; settings: PBMC, ConA 20 μg/mL, 24 hours, read-out: inhibited the release of IL-4
Method: (§1) 3-methanesulfonylpropionitrile (MSPN, prepared according to Example 1 was tested for its effects on in vitro cytokine release from human peripheral blood mononuclear cells (PBMCs). Secretion of cytokines by PBMCs plays a significant role in the inflammatory response.
(§2) MSPN was added to cultures of fresh human PBMCs at 162 μM (22 μg/mL) in duplicate. One hour later, PBMCs were stimulated to secrete cytokines using the mitogens lipopolysaccharide and concanavalin A (ConA). Lipopolysaccharide at 50 pg/mL was used to stimulate the release of interleukin IL-1β, IL-6 and tumor necrosis factor TNFα. ConA at 20 μg/mL was used to stimulate the release of IL-4 and ConA at 5 μg/mL was used to stimulate interferon IFNγ. The corticosteroid dexamethasone (100 nM) was used as a positive control. After 24 hours of incubation, the supernatants were assayed for the cytokines using the Luminex Bead kit. MSPN at 22 μg/mL inhibited the release of IL-1β, IL-6, TNFα, IL-4 and IFNγ by 95%, 98%, 98%, 7% and 21%, respectively. Dexamethasone inhibited the release of IL-1β, IL-6, TNFα, IL-4 and IFNγ by 24%, 60%, 42%, 93% and 87%, respectively.

[2] = test system: TNFα; experiment: In vitro cytokine release from human PBMCs: TNFα; format: cell-based; settings: PBMC, lipopolysaccharide 50 pg/mL, 24 hours, read-out: inhibited the release of TNFα
Method: as §1, §2

[3] = test system: IL-6; experiment: In vitro cytokine release from human PBMCs: IL-6; format: cell-based; settings: PBMC, lipopolysaccharide 50 pg/mL, 24 hours, read-out: inhibited the release of IL-6
Method: as §1, §2

[4] = test system: IL-1β; experiment: In vitro cytokine release from human PBMCs: IL-1β; format: cell-based; settings: PBMC, lipopolysaccharide 50 pg/mL, 24 hours, read-out: inhibited the release of IL-1β
Method: as §1, §2

[5] = test system: IFNγ; experiment: In vitro cytokine release from human PBMCs: IFNγ; format: cell-based; settings: PBMC, ConA 5 μg/mL, 24 hours, read-out: inhibited the release of IFNγ
Method: as §1, §2

[6] = Storage stability of the isolated product at room temperature; format: physicochemical; settings: oil or solid form, enclosed vessel, room temperature (22-28° C.)
From the text: In a preferred embodiment, the water-immiscible organic solvent is ethyl acetate. After the aqueous phase is removed, the ethyl acetate solvent is removed from the product by any means known to a person skilled in the art. For example, the ethyl acetate solvent can be removed by evaporation such as rotary evaporation or drying under nitrogen gas. After the ethyl acetate solvent is removed, the product 3-methanesulfonylpropionitrile is obtained in an oil form or in a solid form, which is stored in an enclosed vessel (such as a capped vial or bottle) and is stable for at least 1-3 months at room temperature (22-28° C.).

[7] = test system: arachidonic acid induced ear swelling; experiment: Topical arachidonic acid induced ear swelling model in mice; format: in vivo; settings: 30 min before and 15 min after challenge, at 90 minutes
Method: Purified 3-methanesulfonylpropionitrile (MSPN, prepared according to Example 2) was dissolved in vehicle (ethanol/acetone 1:1) to 5% (w/v). The active compound, indomethacin (positive control in vehicle), and vehicle were evaluated for anti-inflammatory activity in the topical arachidonic acid induced ear swelling model in mice.
Male ICR derived mice weighing 22±2 g were used in this experiment. 5 mice were used for each group (active compound, positive control, and vehicle). All animals were maintained in a controlled temperature (22-24° C.) and humidity (60%-70%) environment with 12-hour light/dark cycles for at least one week prior to use.
Arachidonic acid (2 mg in 20 μL acetone) was applied topically onto the anterior and posterior surfaces of the right ear of test animals to induce inflammation. MSPN in vehicle (20 μL), indomethacin (0.3 mg) in vehicle, and vehicle (20 μL) was each applied 30 minutes before and 15 minutes after arachidonic acid challenge. At 90 minutes after arachidonic acid induction of ear edema, the thickness of the right ear and the left ear was measured and the difference calculated as an indication of the inflammation in the right ear. Significant activity is defined as a reduction (inhibition) in arachidonic acid induced ear swelling by ≥30% relative to the vehicle-treated group.

[8] = Oral systemic toxicity administration in dogs; format: in vivo
[9] = Oral systemic toxicity administration in rats; format: in vivo
[10] = Systemic (plasma) exposure of MSPN after oral and subcutaneous administration to rats; format: in vivo; settings: after both the oral and subcutaneous routes
Method: This study was done to determine the systemic (plasma) exposure of MSPN after administration by the oral and subcutaneous routes to rats.
MSPN substance was prepared in water for oral administration and in saline for subcutaneous administration. Rats weighed 282 to 295 g were used in the study. Male rats (n=2) were given a single dose at 50, 160 or 500 mg/kg by both oral and subcutaneous routes. Female rats (n=2) were dosed only at 500 mg/kg by both oral and subcutaneous routes. The blood was drawn from each rat at 0.25, 1, 2, 3, 4, 6, 12, 24, and 48 hours and measured for MSPN concentration by LC/MS/MS.

With `C[C@@H]1C[C@H]2[C@@H]3CCC4=CC(=O)C=C[C@]4(C)[C@@]3(F)[C@@H](O)C[C@]2(C)[C@@]1(O)C(=O)CO` [Dexamethasone, dexamethasone, reference compound] the inhibition at 0.1 µM ([1]; dexamethasone 100 nM) was 93%, the inhibition at 0.1 µM ([2]; dexamethasone 100 nM) was 42% and the inhibition at 0.1 µM ([3]; dexamethasone 100 nM) was 60%. The inhibition at 0.1 µM ([4]; dexamethasone 100 nM) was 24% and the inhibition at 0.1 µM ([5]; dexamethasone 100 nM) was 87%.

In the case of `CS(=O)(=O)CCC#N` [MSPN, 3-methanesulfonylpropionitrile], the stable on storage [6] is reported as 1-3 months, the inhibition at 162 µM ([1]; MSPN at 22 μg/mL (162 μM)) is reported as 7% and the inhibition at 162 µM ([2]; MSPN at 22 μg/mL (162 μM)) is reported as 98%. The inhibition at 162 µM ([3]; MSPN at 22 μg/mL (162 μM)) was 98%, the “decrease in the ear swelling induced by arachidonic acid relative to vehicle-treated group” value ([7]; 5% (w/v) in ethanol/acetone 1:1, 20 μL topical) was 31% and the inhibition at 162 µM ([4]; MSPN at 22 μg/mL (162 μM)) was 95%. For the same compound, the “effects seen after oral, systemic toxicity administration” value ([8]; dog, in vivo, po) was “mild physiological effects including decreased body temperature, decreased respiratory rate, increased blood pressure and increased heart rate”, the “doses at which effects were seen, above expected human therapeutic doses” value ([8]; dogs, oral) was “over 2000 fold” and the “effects seen after oral, systemic toxicity administration” value ([9]; rat, in vivo, po) was “mild physiological effects including decreased body temperature, decreased respiratory rate, increased blood pressure and increased heart rate”. For the same compound, the “doses at which effects were seen, above expected human therapeutic doses” value ([9]; rats, oral) was “over 2000 fold”, the inhibition at 162 µM ([5]; MSPN at 22 μg/mL (162 μM)) was 21% and the bioavailability [10] was “significant bioavailability”.

In the case of `COc1ccc2c(c1)c(CC(=O)O)c(C)n2C(=O)c1ccc(Cl)cc1` [indomethacin, reference compound], the “decrease in the ear swelling induced by arachidonic acid relative to vehicle-treated group” value ([7]; 0.3 mg in vehicle topical) is reported as 60%.

— patent US11229620B2, “3-methanesulfonylpropionitrile for treating inflammation and/or pain” (OLATEC THERAPEUTICS LLC, priority 2010, dated 2022)
